Reference: ChEMBL document CHEMBL5715954, “Silencing c-Myc translation as a therapeutic strategy through targeting PI3Kδ and CK1ε in hematological malignancies” (Blood, 2017)

How the values were obtained:
Parameters in all cases: scale not given: the % may be the effect or the level left
[1] = target: Casein kinase I isoform epsilon (Homo sapiens, UniProt P49674); assay: Inhibition of human CK1epsilon assessed as enzyme activity at 1 uM using KRRRAL[pS]VASLPGL as substrate preincubated for 20 mins followed by [gamma-33P]-ATP addition and measured after 120 mins by radiometric Hot-SpotSM Kinase assay relative to control
[2] = target: T1, Tyrosine-protein kinase TXK (Homo sapiens) (UniProt P42681); assay: Inhibition of human TXK assessed as enzyme activity at 1 uM using EAIYAAPFAKKK as substrate preincubated for 20 mins followed by [gamma-33P]-ATP addition and measured after 120 mins by radiometric Hot-SpotSM Kinase assay relative to control
T1 sequence (whole entry): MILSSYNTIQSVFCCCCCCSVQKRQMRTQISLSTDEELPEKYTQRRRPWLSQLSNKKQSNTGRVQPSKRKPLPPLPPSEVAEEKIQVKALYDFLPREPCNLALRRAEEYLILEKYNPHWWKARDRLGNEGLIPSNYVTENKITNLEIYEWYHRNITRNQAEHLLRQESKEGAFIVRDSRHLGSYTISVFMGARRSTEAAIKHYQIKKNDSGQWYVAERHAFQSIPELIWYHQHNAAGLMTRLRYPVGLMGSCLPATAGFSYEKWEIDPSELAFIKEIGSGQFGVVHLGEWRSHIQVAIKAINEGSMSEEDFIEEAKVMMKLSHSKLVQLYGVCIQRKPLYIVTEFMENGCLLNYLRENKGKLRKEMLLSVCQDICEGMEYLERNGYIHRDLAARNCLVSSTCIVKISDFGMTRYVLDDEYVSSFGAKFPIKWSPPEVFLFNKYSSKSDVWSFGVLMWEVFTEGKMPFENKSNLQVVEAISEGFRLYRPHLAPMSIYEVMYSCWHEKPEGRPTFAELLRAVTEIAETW

[3] = target: T2, Dual serine/threonine and tyrosine protein kinase (Homo sapiens) (UniProt Q6XUX3); assay: Inhibition of human RIPK5 assessed as enzyme activity at 1 uM using myelin basic protein as substrate preincubated for 20 mins followed by [gamma-33P]-ATP addition and measured after 120 mins by radiometric Hot-SpotSM Kinase assay relative to control
T2 sequence (whole entry): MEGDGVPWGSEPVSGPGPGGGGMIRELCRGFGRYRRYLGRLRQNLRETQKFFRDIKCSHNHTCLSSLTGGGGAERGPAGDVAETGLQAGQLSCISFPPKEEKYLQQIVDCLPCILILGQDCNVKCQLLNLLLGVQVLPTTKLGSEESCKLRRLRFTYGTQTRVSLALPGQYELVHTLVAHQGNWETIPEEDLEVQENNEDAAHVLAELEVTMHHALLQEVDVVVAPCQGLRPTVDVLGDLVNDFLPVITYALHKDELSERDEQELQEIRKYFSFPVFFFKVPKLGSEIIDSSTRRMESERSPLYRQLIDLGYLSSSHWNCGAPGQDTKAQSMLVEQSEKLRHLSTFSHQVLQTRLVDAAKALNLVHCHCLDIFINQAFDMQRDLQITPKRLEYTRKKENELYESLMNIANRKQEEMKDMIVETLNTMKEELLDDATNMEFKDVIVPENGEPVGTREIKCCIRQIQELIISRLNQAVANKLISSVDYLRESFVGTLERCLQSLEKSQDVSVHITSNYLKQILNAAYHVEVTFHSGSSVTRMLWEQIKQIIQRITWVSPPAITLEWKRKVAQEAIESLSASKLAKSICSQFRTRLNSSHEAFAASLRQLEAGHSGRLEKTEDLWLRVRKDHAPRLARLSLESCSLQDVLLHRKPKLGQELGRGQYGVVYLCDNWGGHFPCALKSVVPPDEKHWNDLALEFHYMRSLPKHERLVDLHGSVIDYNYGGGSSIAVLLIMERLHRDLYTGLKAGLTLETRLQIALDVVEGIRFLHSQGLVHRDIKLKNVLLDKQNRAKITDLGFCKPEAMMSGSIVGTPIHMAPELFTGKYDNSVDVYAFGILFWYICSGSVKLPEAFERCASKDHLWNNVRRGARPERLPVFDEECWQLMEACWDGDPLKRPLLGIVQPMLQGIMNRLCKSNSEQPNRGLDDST

[4] = target: T3, Rhodopsin kinase GRK1 (Homo sapiens) (UniProt Q15835); assay: Inhibition of human GRK1 assessed as enzyme activity at 1 uM using casein as substrate preincubated for 20 mins followed by [gamma-33P]-ATP addition and measured after 120 mins by radiometric Hot-SpotSM Kinase assay relative to control
T3 sequence (whole entry): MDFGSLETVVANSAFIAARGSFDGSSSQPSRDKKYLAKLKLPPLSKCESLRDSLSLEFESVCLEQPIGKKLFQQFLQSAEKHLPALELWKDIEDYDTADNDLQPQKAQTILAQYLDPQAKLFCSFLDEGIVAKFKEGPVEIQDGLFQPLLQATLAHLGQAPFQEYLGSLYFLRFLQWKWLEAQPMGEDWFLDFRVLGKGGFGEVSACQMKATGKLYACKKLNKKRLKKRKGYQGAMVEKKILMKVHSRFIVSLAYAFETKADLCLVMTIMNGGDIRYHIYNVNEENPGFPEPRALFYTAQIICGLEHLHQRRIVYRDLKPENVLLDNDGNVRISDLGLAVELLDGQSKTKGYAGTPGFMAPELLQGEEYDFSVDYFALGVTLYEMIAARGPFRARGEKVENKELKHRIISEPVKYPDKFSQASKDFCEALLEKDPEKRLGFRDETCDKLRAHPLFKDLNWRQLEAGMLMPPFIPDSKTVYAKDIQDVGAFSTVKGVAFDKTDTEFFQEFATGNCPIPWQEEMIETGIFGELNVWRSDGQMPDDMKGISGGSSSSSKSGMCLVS

Chain of Casein kinase I isoform epsilon (P49674 whole entry, looked up, canonical isoform): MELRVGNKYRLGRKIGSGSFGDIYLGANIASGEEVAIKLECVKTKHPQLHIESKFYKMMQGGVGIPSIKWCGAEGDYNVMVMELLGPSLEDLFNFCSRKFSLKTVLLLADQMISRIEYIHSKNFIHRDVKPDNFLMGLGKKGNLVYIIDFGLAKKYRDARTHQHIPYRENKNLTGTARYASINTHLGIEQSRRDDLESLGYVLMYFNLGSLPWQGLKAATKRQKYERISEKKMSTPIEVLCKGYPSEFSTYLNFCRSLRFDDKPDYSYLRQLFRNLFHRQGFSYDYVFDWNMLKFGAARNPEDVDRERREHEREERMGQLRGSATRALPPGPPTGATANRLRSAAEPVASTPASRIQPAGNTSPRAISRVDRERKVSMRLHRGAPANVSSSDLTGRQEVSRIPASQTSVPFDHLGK

Row | SMILES | Activity [1] | Activity [2] | Activity [3] | Activity [4]
1 | CC[C@H](Nc1ncnc2[nH]cnc12)c1nc2cccc(F)c2c(=O)n1-c1ccccc1 | 92.9% | 109% | 90% | 104%
2 | C[C@H](Nc1ncnc2nc[nH]c12)c1cc2cccc(Cl)c2c(=O)n1-c1ccccc1 | 90.9% | 101% | 96% | 102%
3 | CC(C)Oc1ccc(-c2nn([C@@H](C)c3oc4ccc(F)cc4c(=O)c3-c3cccc(F)c3)c3ncnc(N)c23)cc1F [UMBRALISIB] | 39.9% | 111% | 90.7% | 98.7%
